Data from patent US9439920B2, “Composition for the management of nausea and vomiting” (Duchesnay Inc., priority 2013, dated 2016).

Key:
Type in all cases: in vivo, human
[1] = Another study with different doses of R5P (5, 10 or 20 mg) in healthy women; conditions: 8 healthy women, controls not administered with R5P
Procedure: In another study, different doses of R5P were tested: 5, 10 or 20 mg of R5P (i.e. equivalent to the formulations administered to Treatment group C above, with the exception that 5, 10 or 20 mg of R5P was used rather than 40 mg R5P; 8 healthy women for each dose), and the PLP levels were compared to those measured in control healthy women not administered with R5P (24 subjects, equivalent to Treatment group A above).

[2] = Randomized controlled bioavailability study in healthy women, three way cross over (Example 2)
Description: Three Way Cross Over Design.
Bioavailability; Tmax, Cmax and AUC0-t between each treatment.

[3] = test system: pregnant women suffering from nausea and vomiting of pregnancy; assay: Randomized controlled efficacy trial of Diclectin vs. placebo in pregnant women: plasma levels vs PUQE score; conditions: pregnant women treated with Diclectin for 14 days
Procedure: A randomized controlled efficacy trial of Diclectin® vs. placebo in pregnant women was carried out as follows, with the results shown in FIG. 1.
To assess the plasma levels of Doxylamine and PLP and the severity of nausea and vomiting of pregnancy symptoms in pregnant women treated with Diclectin®.
The demographic and medical characteristics of the subjects are as described in Koren et al., Am J Obstet Gynecol 2010; 203(6):571.e1-7.
The study design is as described in Koren et al., 2010, supra. Briefly, a randomized, double-blind, multicenter placebo controlled trial studying pregnant women suffering from nausea and vomiting of pregnancy, analyzed by intention to treat. Women received Diclectin (n=131) or placebo (n=125) for 14 days. Nausea and vomiting of pregnancy symptoms were evaluated daily using the pregnancy unique quantification of emesis scale (PUQE-24, Ebrahimi et al., J Obstet Gynaecol Can. 2009 September; 31(9):803-7).

[4] = co-administration of 40 mg of R5P

## Cc1cc2nc3c(=O)[nH]c(=O)nc-3n(C[C@H](O)[C@H](O)[C@H](O)COP(=O)(O)O)c2cc1C [R5P, riboflavin-5-phosphate]
[1]; 5 mg of R5P
  effect on PLP levels relative to controls: no significant effect
[1]; 10 mg of R5P
  effect on PLP levels relative to controls: no significant effect
[1]; 20 mg of R5P
  effect on pharmacokinetics of PLP relative to controls: some improvement in the pharmacokinetics of PLP
[2]; administration of R5P
  general improvement in the pharmacokinetic profile of PLP: less inter-subject variations and decreased time to reach steady-state PLP levels
[2]; [4]
  PLP levels at 12h: does not significantly affect
  increase in the plasma level of PLP (AUC 0-2 h) following administration of Pyridoxine: faster increase in the plasma level of PLP
[2]; plasma, healthy women, fasted, compared with Diclectin (PA_DR), one-way ANOVA P>0.05
  PLP concentration (using AUC) over the period 0-12 h: did not increase PLP levels significantly

## Cc1ncc(COP(=O)(O)O)c(C=O)c1O [PLP, Pyridoxal 5-phosphate]
[3]
  relation of average plasma concentration to severity of NVP (PUQE score): correlates with a decrease in the severity of the NVP

## CN(C)CCOC(C)(c1ccccc1)c1ccccn1 (stereo not drawn) [Doxylamine, reference compound]
[3]
  relation of average plasma concentration to severity of NVP (PUQE score): correlates with a decrease in the severity of the NVP
